≈ marks a conversion by molar mass, not a printed value.
Columns and labels:
[1] = system: Mycobacterium tuberculosis; assay: Antimycobacterial activity against Mycobacterium tuberculosis; assay type: functional
[2] = biological target: T1, Cell division protein FtsZ (Mycobacterium tuberculosis) (UniProt P9WN95); assay: Inhibition of Mycobacterium tuberculosis FtsZ
T1 sequence (whole entry): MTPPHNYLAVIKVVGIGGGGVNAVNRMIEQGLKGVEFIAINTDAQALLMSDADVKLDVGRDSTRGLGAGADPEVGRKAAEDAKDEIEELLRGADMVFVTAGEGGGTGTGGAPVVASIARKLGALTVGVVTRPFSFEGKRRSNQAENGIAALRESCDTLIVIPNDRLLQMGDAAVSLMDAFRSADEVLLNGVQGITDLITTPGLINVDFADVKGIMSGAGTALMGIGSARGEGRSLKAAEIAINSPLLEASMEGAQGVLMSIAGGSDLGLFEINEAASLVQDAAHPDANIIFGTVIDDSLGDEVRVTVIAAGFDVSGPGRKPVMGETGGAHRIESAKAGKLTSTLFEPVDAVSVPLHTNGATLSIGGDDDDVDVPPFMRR

[3] = Selectivity index, ratio of MIC for Mycobacterium tuberculosis to cytotoxicity to african green monkey Vero cells; assay type: functional
[4] = Toxicity assessed as haemolysis in RBC; assay type: cell-based, Erythrocyte; conditions: red blood cells (RBC); read-out: LD50 (the source's name)
[5] = system: Mycobacterium tuberculosis; assay: Antimycobacterial activity against Mycobacterium tuberculosis H37Rv; assay type: functional
[6] = biological target: T2, Enoyl-[acyl-carrier-protein] reductase [NADH] (Mycobacterium tuberculosis) (UniProt P9WGR1); assay: Inhibition of Mycobacterium tuberculosis InhA at 40 uM
T2 sequence (whole entry): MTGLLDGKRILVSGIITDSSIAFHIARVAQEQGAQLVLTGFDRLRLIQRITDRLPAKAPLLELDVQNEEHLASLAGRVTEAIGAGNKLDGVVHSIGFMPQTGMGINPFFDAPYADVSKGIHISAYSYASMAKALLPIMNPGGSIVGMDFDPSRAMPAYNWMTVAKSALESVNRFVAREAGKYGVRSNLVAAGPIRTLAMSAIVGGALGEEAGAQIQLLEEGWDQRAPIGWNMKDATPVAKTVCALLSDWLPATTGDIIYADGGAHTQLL

[7] = system: Mycobacterium tuberculosis; assay: Antimycobacterial activity against Mycobacterium tuberculosis H37Ra; assay type: functional
[8] = Selectivity index, ratio of MIC for Mycobacterium tuberculosis to cytotoxicity to […] V79 cells; assay type: functional

SMILES	MIC [1] [µg/mL]	other results
O=[N+]([O-])c1c[nH]cc1-c1ccc(Cl)cc1Cl	1 (≈ 3.89 µM)	–
CCOC(=O)Nc1cc(NCCCCN(CC)CC)c2nc(-c3ccccc3)c(-c3ccccc3)nc2n1	0.15 (≈ 0.293 µM)	ID50 [2]: 52 µM
CC1Nc2nc(NC(=O)Oc3ccccc3)cc(N)c2N=C1c1ccccc1 (stereo not drawn)	1.3 (≈ 3.48 µM)	–
c1ccc(-c2ccc(CNc3cccc(-c4c[nH]cn4)c3)cc2)cc1	4 (≈ 12.3 µM)	Selectivity Index [3]: 16
COc1nc2ccc(Br)cc2cc1[C@@H](c1ccccc1)[C@@](O)(CCN(C)C)c1cccc2ccccc12 [BEDAQUILINE]	0.03 (≈ 0.054 µM)	–
N#Cc1c(N2CCN(c3ccc([N+](=O)[O-])cc3)CC2)[n+]([O-])c2ccccc2[n+]1[O-]	0.1 (≈ 0.255 µM)	–
[H][C@@]12CC[C@H](C(C)CCC(N)=O)[C@@]1(C)CC[C@]1([H])[C@@]3(C)CC[C@]4(C[C@@]3([H])C[C@@H](OC(C)=O)[C@@]21[H])OOC1(CC[C@@H](C)CC1)OO4 (stereo partly drawn)	3.12 (≈ 5.42 µM)	–
S=c1oc2c(Cl)cc(Cl)cc2c(=S)n1-c1cccc(Cl)c1	4 (≈ 10.7 µM)	–
CC1(C)O[C@H]2OC(COCC(O)CNCCCCCCCCCCCCNCC(O)COCC3O[C@@H]4OC(C)(C)O[C@@H]4[C@H]4OC(C)(C)O[C@@H]34)[C@@H]3OC(C)(C)O[C@@H]3[C@H]2O1 (stereo partly drawn)	1.56 (≈ 1.87 µM)	–
OC12CCCC(C1)SC(c1ccccc1)=N2 (stereo not drawn)	≤ 6.25	–
c1ccc(-c2ccc(CNc3ccc(CN4CCSCC4)cc3)cc2)cc1	0.5 (≈ 1.33 µM)	–
O=C(COc1cnccn1)N/N=c1\scc(-c2ccc(Br)cc2)n1-c1ccc(Cl)cc1[N+](=O)[O-]	0.3 (≈ 0.534 µM)	HC50 [4]: > 500 µg/mL
O=[N+]([O-])c1ccc(-c2cnn(-c3nccc(C(F)(F)F)n3)c2)c([N+](=O)[O-])c1	2.5 (≈ 6.57 µM)	MIC [5]: 2.5 µg/mL (≈ 6.57 µM); inhibition [6]: 91%
CN(C)S(=O)(=O)n1cnc2c(=S)[nH]cnc21	0.78 (≈ 3.01 µM)	–
COC(=O)c1ccccc1S(=O)(=O)NC(=O)Nc1nc(C)cc(C)n1 [SULFOMETURON METHYL]	0.3 (≈ 0.823 µM)	–
CCCCCCCCCCS(=O)(=O)CC(N)=O	0.75 (≈ 2.85 µM)	–
CC(=O)NC[C@H]1CN(c2ccc(N3CCSCC3)c(F)c2)C(=O)O1 [SUTEZOLID]	≤ 0.125	–

SMILES	MIC [1] [µg/mL]	other results
CN(C)C/C=C(\c1ccc(Br)cc1)c1ccc(-c2ccccc2)cc1	1.6 (≈ 4.08 µM)	MIC [5]: 1.6 µg/mL (≈ 4.08 µM); MIC [7]: 1.6 µg/mL (≈ 4.08 µM); Selectivity Index [8]: <2
CCCSc1nc(Cl)c(C#N)c(-c2ccc(F)cc2)n1	0.78 (≈ 2.53 µM)	–
Cc1c(CN2CCN(C)CC2)cc(-c2ccc(Cl)cc2)n1-c1ccc(Cl)cc1	0.7 (≈ 1.69 µM)	Selectivity Index [3]: 5.6
Cc1ccc2nc(SCc3cc([N+](=O)[O-])cc([N+](=O)[O-])c3)[nH]c2c1	1.3 (≈ 3.78 µM)	–
CCCCCCCCCCNC[C@H]1O[C@H](O[C@H]2O[C@H](CNCCCCCCCCCC)[C@@H](O)[C@H](O)[C@H]2O)[C@H](O)[C@@H](O)[C@@H]1O	1.3 (≈ 2.09 µM)	–
CCCCOc1ccc2nc(C)cc(N/N=C/c3cccc4c(OC)cccc34)c2c1	0.78 (≈ 1.89 µM)	–
CC(=O)NCCCC[C@H](OC(C)=O)[C@@H](COC(C)=O)OC(C)=O	≤ 6.25	–
CCCCCCCCCCCCCCCCOCCCCOP(=O)(O)C[C@@H]1O[C@H](CO)[C@@H](O)[C@@H]1O	3.13 (≈ 5.97 µM)	–
NS#Cc1cc(SCc2ccccc2F)ccn1	1.2 (≈ 4.31 µM)	–
CCCCCCCCCCCCCCCCN[C@H](CC(=O)OCC)[C@@H]1O[C@@H]2OC(C)(C)O[C@@H]2C1OC (stereo partly drawn)	3.12 (≈ 6.07 µM)	–
Clc1nc(C2CCCO2)c2ncn(Cc3ccccc3)c2n1 (stereo not drawn)	0.78 (≈ 2.48 µM)	Selectivity Index [3]: 10.6
O=C(Nc1ncccc1[N+](=O)[O-])c1c(O)cccc1Cl	< 1	–
CC(=O)/C(=C/C=C/[C@@H](OCc1ccccc1)[C@H](COCc1ccccc1)OCc1ccccc1)CCl	3.1 (≈ 6.14 µM)	–
COc1ccc(C(=O)Nc2ccc(C(=O)NN3C(=O)CSC3c3ccc(F)cc3)cc2)cc1 (stereo not drawn)	6.25 (≈ 13.4 µM)	–
CC(C)c1ccc(-c2c(N)nnc3c2c2ccccc2n3C)cc1	1.42 (≈ 4.49 µM)	–
O=[N+]([O-])c1cn2c(n1)OC[C@@H](OCc1ccc(OC(F)(F)F)cc1)C2 [PRETOMANID]	0.13 (≈ 0.362 µM)	–

From ChEMBL document CHEMBL1143401, “New small-molecule synthetic antimycobacterials” (Antimicrob Agents Chemother, 2005)
